# Reference: patent US20210024542A1 (Torcept Therapeutics, Inc., priority 2018, published 2021)
# How the values were obtained:
# CML-T1 = experiment: OncoPanel cell proliferation assay, CML-T1; assay type: cell-based, human; conditions: CML-T1, scale 0-10
# Experimental: (§1) Cells were grown in RPMI 1640, 10% FBS, 2 mM L-alanyl-L-glutamine, 1 mM Na pyruvate, or a special medium. Cells were seeded into 384-well plates and incubated in a humidified atmosphere of 5% CO2 at 37° C. Compounds were added the day following cell seeding. At the same time, a time zero untreated cell plate was generated. After a 3-day incubation period, cells were fixed and stained to allow fluorescence imaging of nuclei. Compounds (1 mM stock solutions) were serially diluted in half-log steps from the highest test concentration ([…]), and assayed over 10 concentrations with a maximum assay concentration of 0.1% DMSO. Automated fluorescence microscopy was carried out using a Molecular Devices ImageXpress Micro XL high-content imager, and images were collected with a 4× objective. 16-bit TIFF images were acquired and analyzed with MetaXpress 5.1.0.41 software.
# (§2) Cell proliferation was measured by the fluorescence intensity of an incorporated nuclear dye. The output is referred to as the relative cell count, where the measured nuclear intensity is transformed to percent of control (POC) using the following formula: […]
# (§3) Cellular response parameters were calculated using nonlinear regression to a sigmoidal single-site dose response model:
# (§4) Where y is a response measured at concentration x, A and B are the lower and upper limits of the response, C is the concentration at the response midpoint (EC50), and D is the Hill Slope (Ref. 1).
# (§5) EC50 is the test compound concentration at the curve inflection point or half the effective response (parameter C of the fitted curve solution). GI50 is the concentration needed to reduce the observed growth by half (midway between the curve maximum and the time zero value). “Cell Count Activity Area” is an estimate of the integrated area above the curve (Barretina, et al. The Cancer Cell Line Encyclopedia enables predictive modelling of anticancer drug sensitivity. Nature 483: 603-607). […] In rare instances, values <0 or >10 may be observed. […] Curve-fitting, calculations, and report generation was performed using a custom data reduction engine and MathIQ based software (AIM).
# ST486 = experiment: OncoPanel cell proliferation assay, ST486; assay type: cell-based, human
# Experimental: as §1, §2, §3, §4, §5
# SK-UT-1 = experiment: OncoPanel cell proliferation assay, SK-UT-1
# Experimental: (§6) Cells were seeded into 384-well plates and incubated in a humidified atmosphere of 5% CO2 at 37° C. Compounds were added the day following cell seeding. At the same time, a time zero untreated cell plate was generated. After a 3-day incubation period, cells were fixed and stained to allow fluorescence imaging of nuclei. Compounds (1 mM stock solutions) were serially diluted in half-log steps from the highest test concentration (1 micromol), and assayed over 10 concentrations with a maximum assay concentration of 0.1% DMSO. Automated fluorescence microscopy was carried out using a Molecular Devices ImageXpress Micro XL high-content imager, and images were collected with a 4× objective. 16-bit TIFF images were acquired and analyzed with MetaXpress 5.1.0.41 software.
# (§7) GI50 is the concentration needed to reduce the observed growth by half (midway between the curve maximum and the time zero value). […] In rare instances, values <0 or >10 may be observed. […] Curve-fitting, calculations, and report generation was performed using a custom data reduction engine and MathIQ based software (AIM).
# RKOE6 = experiment: OncoPanel cell proliferation assay, RKOE6; conditions: RKOE6, scale 0-10
# Experimental: as §6, §7
# CAMA-1 = experiment: OncoPanel cell proliferation assay, CAMA-1; conditions: CAMA-1, scale 0-10
# Experimental: as §6, §7
# Hs 852.T = experiment: OncoPanel cell proliferation assay, Hs 852.T; assay type: cell-based, human
# Experimental: as §1, §2, §3, §4, §5
# A431 = experiment: OncoPanel cell proliferation assay, A431; assay type: cell-based, human
# Experimental: as §1, §2, §3, §4, §5
# CRO-AP2 = experiment: OncoPanel cell proliferation assay, CRO-AP2; assay type: cell-based, human; conditions: CRO-AP2, scale 0-10
# Experimental: as §1, §2, §3, §4, §5
# TF-1 = experiment: OncoPanel cell proliferation assay, TF-1; assay type: cell-based, human
# Experimental: as §1, §2, §3, §4, §5
# Hs 729 = experiment: OncoPanel cell proliferation assay, Hs 729; assay type: cell-based, human
# Experimental: as §1, §2, §3, §4, §5
# OVCAR3 = experiment: OncoPanel cell proliferation assay, OVCAR3
# Experimental: as §6, §7
# 786-O = experiment: OncoPanel cell proliferation assay, 786-O; assay type: cell-based, human; conditions: 786-O, scale 0-10
# Experimental: as §1, §2, §3, §4, §5
# T24 = experiment: OncoPanel cell proliferation assay, T24; assay type: cell-based, human
# Experimental: as §1, §2, §3, §4, §5
# SK-MEL-28 = experiment: OncoPanel cell proliferation assay, SK-MEL-28; assay type: cell-based, human
# Experimental: as §1, §2, §3, §4, §5
structure (smiles),measurement,setting,value
"CO[C@H]1C[C@@H]2CC[C@@H](C)[C@@](O)(O2)C(=O)C(=O)N2CCCC[C@H]2C(=O)O[C@H]([C@H](C)C[C@@H]2CC[C@@H](O)[C@H](OC)C2)CC(=O)[C@H](C)/C=C(\C)[C@@H](O)[C@@H](OC)C(=O)[C@H](C)C[C@H](C)/C=C/C=C/C=C/1C [Rapamycin, reference compound]",Cell Count Activity Area,CML-T1,4.56
same,IC50,"ST486; Homo sapiens, 72 h, ST486, 3-day incubation, read-out: Cell Count IC50",> 1000 nM
same,Cell Count Activity Area,"ST486; ST486, scale 0-10",3.99
same,EC50,"SK-UT-1; Homo sapiens, SK-UT-1, 72 h, read-out: Cell Count EC50",0.2 nM
same,GI50,"SK-UT-1; Homo sapiens, SK-UT-1, 72 h, read-out: Cell Count GI50",> 1000 nM
same,IC50,"SK-UT-1; Homo sapiens, SK-UT-1, 72 h, read-out: Cell Count IC50",> 1000 nM
same,Cell Count Activity Area,"SK-UT-1; SK-UT-1, scale 0-10",3.23
same,Cell Count Activity Area,RKOE6,4.61
same,Cell Count Activity Area,CAMA-1,4.07
same,EC50,"Hs 852.T; Homo sapiens, 72 h, 3-day incubation, read-out: Cell Count EC50",> 1000 nM
same,GI50,"Hs 852.T; Homo sapiens, 72 h, 3-day incubation, read-out: Cell Count GI50",> 1000 nM
same,IC50,"Hs 852.T; Homo sapiens, 72 h, 3-day incubation, read-out: Cell Count IC50",> 1000 nM
same,Cell Count Activity Area,Hs 852.T; scale 0-10,1.43
same,Cell Count Activity Area,"A431; A431, scale 0-10",0.28
same,EC50,"A431; Homo sapiens, A-431, 72 h, A431, 3-day incubation, read-out: Cell Count EC50",> 1000 nM
same,GI50,"A431; Homo sapiens, A-431, 72 h, A431, 3-day incubation, read-out: Cell Count GI50",> 1000 nM
same,IC50,"A431; Homo sapiens, A-431, 72 h, A431, 3-day incubation, read-out: Cell Count IC50",> 1000 nM
same,Cell Count Activity Area,CRO-AP2,6.22
same,EC50,"TF-1; Homo sapiens, 72 h, TF-1, 3-day incubation, read-out: Cell Count EC50",> 1000 nM
same,GI50,"TF-1; Homo sapiens, 72 h, TF-1, 3-day incubation, read-out: Cell Count GI50",> 1000 nM
same,IC50,"TF-1; Homo sapiens, 72 h, TF-1, 3-day incubation, read-out: Cell Count IC50",> 1000 nM
same,Cell Count Activity Area,"TF-1; TF-1, scale 0-10",1.52
same,EC50,"Hs 729; Homo sapiens, 72 h, Hs 729, 3-day incubation, read-out: Cell Count EC50",> 1000 nM
same,GI50,"Hs 729; Homo sapiens, 72 h, Hs 729, 3-day incubation, read-out: Cell Count GI50",> 1000 nM
same,IC50,"Hs 729; Homo sapiens, 72 h, Hs 729, 3-day incubation, read-out: Cell Count IC50",> 1000 nM
same,Cell Count Activity Area,"Hs 729; Hs 729, scale 0-10",0.55
same,IC50,"OVCAR3; Homo sapiens, OVCAR-3, 72 h, read-out: Cell Count IC50",> 1000 nM
same,Cell Count Activity Area,"OVCAR3; OVCAR3, scale 0-10",2.08
same,Cell Count Activity Area,786-O,4.17
same,IC50,"T24; Homo sapiens, T-24, 72 h, T24, 3-day incubation, read-out: Cell Count IC50",2.1 nM
same,Cell Count Activity Area,"T24; T24, scale 0-10",4.39
same,IC50,"SK-MEL-28; Homo sapiens, 72 h, SK-MEL-28, 3-day incubation, read-out: Cell Count IC50",> 1000 nM
same,Cell Count Activity Area,"SK-MEL-28; SK-MEL-28, scale 0-10",2.50
